Our source for the IC50 values is patent US9902702B2, “Spirocycloheptanes as inhibitors of rock” (BRISTOL-MYERS SQUIBB COMPANY, priority 2014, dated 2018).

One may read the IC50 as the point on the concentration scale where inhibition reaches its midpoint.

The target of this assay is ROCK2 (Homo sapiens, UniProt O75116). Nature of the assay: ROCK assay: phosphorylation of FITC peptide substrate, LABCHIP 3000 mobility shift. Type of assay: biochemical. Particulars: 5 μM ATP, 1.5 μM peptide substrate; read-out: ROCK2 Activity (ROCK IC50 range). Here is the method: The effectiveness of compounds of the present invention as ROCK inhibitors can be determined in a 30 μL assay containing 20 mM HEPES, pH 7.5, 20 mM MgCl2, 0.015% Brij-35, 4 mM DTT, 5 μM ATP and 1.5 μM peptide substrate (FITC-AHA-AKRRRLSSLRA-OH). Compounds were dissolved in DMSO so that the final concentration of DMSO was <2%, and the reaction was initiated with Rho kinase variants. After incubation, the reaction was terminated by the addition of EDTA and the phosphorylated and non-phosphorylated peptides separated using a LABCHIP® 3000 Reader (Caliper Life Sciences). […] Compounds were tested in dose-response format, and the inhibition of kinase activity was calculated at each concentration of compound. The inhibition data were fit using a curve-fitting program to determine the IC50; i.e., the concentration of compound required to inhibit 50% of kinase activity.
Representative Examples were tested in the ROCK assay described above and found having ROCK inhibitory activity.

ROCK2, sequence (O75116 whole entry, species assumed): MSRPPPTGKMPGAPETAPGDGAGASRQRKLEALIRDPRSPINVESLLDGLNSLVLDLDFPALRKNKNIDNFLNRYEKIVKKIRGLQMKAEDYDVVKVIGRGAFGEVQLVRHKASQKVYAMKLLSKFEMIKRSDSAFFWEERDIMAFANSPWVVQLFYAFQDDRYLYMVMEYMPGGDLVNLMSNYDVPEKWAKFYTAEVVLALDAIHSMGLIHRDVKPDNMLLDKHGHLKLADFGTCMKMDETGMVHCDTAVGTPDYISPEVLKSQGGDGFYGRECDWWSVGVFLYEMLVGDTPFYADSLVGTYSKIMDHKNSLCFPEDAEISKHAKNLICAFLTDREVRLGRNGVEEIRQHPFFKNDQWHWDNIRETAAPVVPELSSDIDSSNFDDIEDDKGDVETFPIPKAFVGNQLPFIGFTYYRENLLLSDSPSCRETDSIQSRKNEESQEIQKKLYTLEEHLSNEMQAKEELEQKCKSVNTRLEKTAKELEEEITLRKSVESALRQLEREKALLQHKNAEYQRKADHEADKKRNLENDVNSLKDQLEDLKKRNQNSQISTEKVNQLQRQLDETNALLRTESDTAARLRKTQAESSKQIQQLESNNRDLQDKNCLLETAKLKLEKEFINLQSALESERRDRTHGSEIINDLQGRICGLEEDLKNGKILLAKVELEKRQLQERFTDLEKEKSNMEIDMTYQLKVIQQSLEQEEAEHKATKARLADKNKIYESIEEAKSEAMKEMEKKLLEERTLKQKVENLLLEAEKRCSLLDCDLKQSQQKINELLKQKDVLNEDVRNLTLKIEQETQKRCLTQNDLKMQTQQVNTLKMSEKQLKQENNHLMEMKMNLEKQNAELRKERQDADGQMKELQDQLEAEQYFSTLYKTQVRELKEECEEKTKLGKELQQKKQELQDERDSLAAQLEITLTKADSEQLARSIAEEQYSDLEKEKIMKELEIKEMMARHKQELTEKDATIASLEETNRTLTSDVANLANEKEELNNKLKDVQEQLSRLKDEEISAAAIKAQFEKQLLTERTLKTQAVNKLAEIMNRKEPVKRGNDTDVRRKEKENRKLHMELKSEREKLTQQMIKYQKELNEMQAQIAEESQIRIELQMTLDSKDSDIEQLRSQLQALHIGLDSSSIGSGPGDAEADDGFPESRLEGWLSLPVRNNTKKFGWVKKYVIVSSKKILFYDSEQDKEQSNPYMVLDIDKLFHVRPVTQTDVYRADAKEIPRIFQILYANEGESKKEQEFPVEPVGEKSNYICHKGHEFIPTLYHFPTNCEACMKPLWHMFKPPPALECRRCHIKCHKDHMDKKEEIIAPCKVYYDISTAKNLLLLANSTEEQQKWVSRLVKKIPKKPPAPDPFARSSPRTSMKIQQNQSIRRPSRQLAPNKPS

With `COc1ccc2c(C(=O)NC3CC4(C3)CC(c3n[nH]c(=O)c5ccccc35)C4)nn(CC(C)(C)O)c2c1` [Example 62, 1-(2-hydroxy-2-methylpropyl)-6-methoxy-N-((aR)-6-(4-oxo-3,4-dihydrophthalazin-1-yl)spiro[3.3]heptan-2-yl)-1H-indazole-3-carboxamide], the IC50 fell in the range of 0.2 to 2 nM. As to `COc1ccc2c(C(=O)NC3CC4(C3)CC(c3n[nH]c(=O)c5ccccc35)C4)cnn2c1` [Example 63, 6-methoxy-N-((aR)-6-(4-oxo-3,4-dihydrophthalazin-1-yl)spiro[3.3]heptan-2-yl)pyrazolo[1,5-a]pyridine-3-carboxamide], the IC50 is 0.2 to 2 nM. As for `COc1ccn2ncc(C(=O)NC3CC4(C3)CC(c3n[nH]c(=O)c5ccccc35)C4)c2c1` [Example 64, 5-methoxy-N-((aR)-6-(4-oxo-3,4-dihydrophthalazin-1-yl)spiro[3.3]heptan-2-yl)pyrazolo[1,5-a]pyridine-3-carboxamide], the IC50 is 5.1 to 15 nM. On to `CC(C)(O)Cn1nc(C(=O)NC2CC3(C2)CC(c2n[nH]c(=O)c4ccccc24)C3)c2cc(F)ccc21` [Example 65, 5-fluoro-1-(2-hydroxy-2-methylpropyl)-N-((aR)-6-(4-oxo-3,4-dihydrophthalazin-1-yl)spiro[3.3]heptan-2-yl)-1H-indazole-3-carboxamide], for which the IC50 lay in the range of 2.01 to 5 nM. For `CC(C)(O)Cn1cc(C(=O)NC2CC3(C2)CC(c2n[nH]c(=O)c4ccccc24)C3)c2cccnc21` [Example 66, 1-(2-hydroxy-2-methylpropyl)-N-((aR)-6-(4-oxo-3,4-dihydrophthalazin-1-yl)spiro[3.3]heptan-2-yl)-1H-pyrrolo[2,3-b]pyridine-3-carboxamide], the IC50 lay in the range of 5.1 to 15 nM. For `CC(C)(O)COc1ccc2c(C(=O)NC3CC4(C3)CC(c3n[nH]c(=O)c5ccccc35)C4)cnn2c1` [Example 67, 6-(2-hydroxy-2-methylpropoxy)-N-((aR)-6-(4-oxo-3,4-dihydrophthalazin-1-yl)spiro[3.3]heptan-2-yl)pyrazolo[1,5-a]pyridine-3-carboxamide], the IC50 is 2.01 to 5 nM. Regarding `O=C(NC1CC2(C1)CC(c1n[nH]c(=O)c3ccccc13)C2)c1cnn2cc(OCCN3CCOCC3)ccc12` [Example 68, 6-(2-morpholinoethoxy)-N-((aR)-6-(4-oxo-3,4-dihydrophthalazin-1-yl)spiro[3.3]heptan-2-yl)pyrazolo[1,5-a]pyridine-3-carboxamide], the IC50 is 2.01 to 5 nM. With `O=C(NC1CC2(C1)CC(c1n[nH]c(=O)c3ccccc13)C2)c1cnc(N2CCOCC2)s1` [Example 69, 2-morpholino-N-((aR)-6-(4-oxo-3,4-dihydrophthalazin-1-yl)spiro[3.3]heptan-2-yl)thiazole-5-carboxamide] the figure was 2.01 to 5 nM.

Consider `O=C(NC1CC2(C1)CC(c1n[nH]c(=O)c3ccccc13)C2)c1cnc(N2CCCC2)s1` [Example 70, N-((aR)-6-(4-oxo-3,4-dihydrophthalazin-1-yl)spiro[3.3]heptan-2-yl)-2-(pyrrolidin-1-yl)thiazole-5-carboxamide], for which the IC50 lay in the range of 2.01 to 5 nM. On to `O=C(NC1CC2(C1)CC(c1n[nH]c(=O)c3ccccc13)C2)c1noc2ccccc12` [Example 71, N-((aR)-6-(4-oxo-3,4-dihydrophthalazin-1-yl)spiro[3.3]heptan-2-yl)benzo[d]isoxazole-3-carboxamide], for which the IC50 lay in the range of 5.1 to 15 nM. On to `CC(C)(O)Cn1cc(C(=O)NC2CC3(C2)CC(c2n[nH]c(=O)c4ccccc24)C3)c2ccccc21` [Example 72, 1-(2-hydroxy-2-methylpropyl)-N-((aR)-6-(4-oxo-3,4-dihydrophthalazin-1-yl)spiro[3.3]heptan-2-yl)-1H-indole-3-carboxamide], for which the IC50 is 0.2 to 2 nM.

Turning to `O=C(NC1CC2(C1)CC(c1n[nH]c(=O)c3ccccc13)C2)c1cnn2ccc(OCCN3CCOCC3)cc12` [Example 73, 5-(2-morpholinoethoxy)-N-((aR)-6-(4-oxo-3,4-dihydrophthalazin-1-yl)spiro[3.3]heptan-2-yl)pyrazolo[1,5-a]pyridine-3-carboxamide], the IC50 lay in the range of 2.01 to 5 nM. As for `O=C(NC1CC2(C1)CC(c1n[nH]c(=O)c3ccccc13)C2)c1cnn2ccccc12` [Example 74, N-((aR)-6-(4-oxo-3,4-dihydrophthalazin-1-yl)spiro[3.3]heptan-2-yl)pyrazolo[1,5-a]pyridine-3-carboxamide], the IC50 is 2.01 to 5 nM.

On to `COCC(O)COc1ccn2ncc(C(=O)NC3CC4(C3)CC(c3n[nH]c(=O)c5ccccc35)C4)c2c1` [Example 75, 5-(2-hydroxy-3-methoxypropoxy)-N-((aR)-6-(4-oxo-3,4-dihydrophthalazin-1-yl)spiro[3.3]heptan-2-yl)pyrazolo[1,5-a]pyridine-3-carboxamide], for which the IC50 fell in the range of 15.1 to 100 nM. To `O=C(NC1CC2(C1)CC(c1n[nH]c(=O)c3ccccc13)C2)c1cnn2cc(N3CCOCC3)ccc12` [Example 76, 6-morpholino-N-((aR)-6-(4-oxo-3,4-dihydrophthalazin-1-yl)spiro[3.3]heptan-2-yl)pyrazolo[1,5-a]pyridine-3-carboxamide] belongs 2.01 to 5 nM; to `O=C(NC1CC2(C1)CC(c1n[nH]c(=O)c3ccccc13)C2)c1cnn2ccc(OCCO)cc12` [Example 77, 5-(2-hydroxyethoxy)-N-((aR)-6-(4-oxo-3,4-dihydrophthalazin-1-yl)spiro[3.3]heptan-2-yl)pyrazolo[1,5-a]pyridine-3-carboxamide], 15.1 to 100 nM. To `O=C(NC1CC2(C1)CC(c1n[nH]c(=O)c3ccccc13)C2)c1onc2ccccc12` [Example 78, N-((aR)-6-(4-oxo-3,4-dihydrophthalazin-1-yl)spiro[3.3]heptan-2-yl)benzo[c]isoxazole-3-carboxamide] belongs 5.1 to 15 nM; to `O=C(NC1CC2(C1)CC(c1n[nH]c(=O)c3ccccc13)C2)c1cnn2cc(OC(F)F)ccc12` [Example 79, 6-(difluoromethoxy)-N-((aR)-6-(4-oxo-3,4-dihydrophthalazin-1-yl)spiro[3.3]heptan-2-yl)pyrazolo[1,5-a]pyridine-3-carboxamide], 2.01 to 5 nM; to `O=C(NC1CC2(C1)CC(c1n[nH]c(=O)c3ccccc13)C2)c1cnn2cc(OCC(F)F)ccc12` [Example 80, 6-(2,2-difluoroethoxy)-N-((aR)-6-(4-oxo-3,4-dihydrophthalazin-1-yl)spiro[3.3]heptan-2-yl)pyrazolo[1,5-a]pyridine-3-carboxamide], 0.2 to 2 nM. Regarding `O=C(NC1CC2(C1)CC(c1n[nH]c(=O)c3ccccc13)C2)c1cnn2cc(OCCn3cccn3)ccc12` [Example 81, 6-(2-(1H-pyrazol-1-yl)ethoxy)-N-((aR)-6-(4-oxo-3,4-dihydrophthalazin-1-yl)spiro[3.3]heptan-2-yl)pyrazolo[1,5-a]pyridine-3-carboxamide], the IC50 is 0.2 to 2 nM. Turning to `O=C(NC1CC2(C1)CC(c1n[nH]c(=O)c3ccccc13)C2)c1cnn2cc(N3CCC(F)(F)CC3)ccc12` [Example 82, 6-(4,4-difluoropiperidin-1-yl)-N-((aR)-6-(4-oxo-3,4-dihydrophthalazin-1-yl)spiro[3.3]heptan-2-yl)pyrazolo[1,5-a]pyridine-3-carboxamide], the IC50 is 2.01 to 5 nM. In the case of `O=C(NC1CC2(C1)CC(c1n[nH]c(=O)c3ccccc13)C2)c1cnn2cc(OCCN3CCCC3)ccc12` [Example 83, N-((aR)-6-(4-oxo-3,4-dihydrophthalazin-1-yl)spiro[3.3]heptan-2-yl)-6-(2-(pyrrolidin-1-yl)ethoxy)pyrazolo[1,5-a]pyridine-3-carboxamide], the IC50 lay within 0.2 to 2 nM. Take `O=C(NC1CC2(C1)CC(c1n[nH]c(=O)c3ccccc13)C2)c1cnn2ccc(N3CCOCC3)cc12` [Example 84, 5-morpholino-N-((aR)-6-(4-oxo-3,4-dihydrophthalazin-1-yl)spiro[3.3]heptan-2-yl)pyrazolo[1,5-a]pyridine-3-carboxamide]: the IC50 lay within 5.1 to 15 nM. On to `Cn1cc(-c2ccn3ncc(C(=O)NC4CC5(C4)CC(c4n[nH]c(=O)c6ccccc46)C5)c3c2)cn1` [Example 85, 5-(1-methyl-1H-pyrazol-4-yl)-N-((aR)-6-(4-oxo-3,4-dihydrophthalazin-1-yl)spiro[3.3]heptan-2-yl)pyrazolo[1,5-a]pyridine-3-carboxamide], for which the IC50 was 2.01 to 5 nM. Regarding `CN1CCN(c2ccc3c(C(=O)NC4CC5(C4)CC(c4n[nH]c(=O)c6ccccc46)C5)cnn3c2)CC1` [Example 86, 6-(4-methylpiperazin-1-yl)-N-((aR)-6-(4-oxo-3,4-dihydrophthalazin-1-yl)spiro[3.3]heptan-2-yl)pyrazolo[1,5-a]pyridine-3-carboxamide], the IC50 was in the range of 0.2 to 2 nM. Consider `O=C(NC1CC2(C1)CC(c1n[nH]c(=O)c3ccccc13)C2)c1cnn2cc(N3CCCC3)ccc12` [Example 87, N-((aR)-6-(4-oxo-3,4-dihydrophthalazin-1-yl)spiro[3.3]heptan-2-yl)-6-(pyrrolidin-1-yl)pyrazolo[1,5-a]pyridine-3-carboxamide], for which the IC50 lay within 0.2 to 2 nM. Regarding `O=C(NC1CC2(C1)CC(c1n[nH]c(=O)c3ccccc13)C2)c1cnn2cc(N3CCC(F)C3)ccc12` [Example 88, 6-((R)-3-fluoropyrrolidin-1-yl)-N-((aR)-6-(4-oxo-3,4-dihydrophthalazin-1-yl)spiro[3.3]heptan-2-yl)pyrazolo[1,5-a]pyridine-3-carboxamide], the IC50 lay within 0.2 to 2 nM. For the molecule `O=C(NC1CC2(C1)CC(c1n[nH]c(=O)c3ccccc13)C2)c1cnn2cc(N3CCC(F)C3)ccc12` [Example 89, 6-((S)-3-fluoropyrrolidin-1-yl)-N-((aR)-6-(4-oxo-3,4-dihydrophthalazin-1-yl)spiro[3.3]heptan-2-yl)pyrazolo[1,5-a]pyridine-3-carboxamide], the IC50 lay within 0.2 to 2 nM.
